Experimental data from patent publication EP0103895A2, “Novel hydroxylamine derivatives, production and use thereof” (MEIJI SEIKA KABUSHIKI KAISHA, priority 1982, dated 1984).
“And” between values parts separate entries of the source, which are not always exact repeats. Equal values may be shown once. Read-outs that look alike come from different tables or passages of the source.

Assays:
[1] = tested on: fowl roundworm (Ascaridia galli); assay: Anthelmintic test in chickens artificially infected with fowl roundworm, single oral dose in gelatin capsule, worm bodies counted within 48 hours (Test Examples A1, B1, C1, D1); format: in vivo; details: for inhibition in vivo at 30 mg/kg / inhibition in vivo at 50 mg/kg / inhibition in vivo at 15 mg/kg: Ascaridia galli, po, 48 h, read-out: Anthelmintic effect after 48 hours
Protocol: Chickens infected artificially with fowl roundworm (Ascaridia galli) were employed in groups each consisting of three chickens. Fecal matter testing was conducted before administration of medicine to confirm infection with the worm. The quantity of the compound provided for testing was 10 mg and 20 mg per Kg of body weight, which was orally administered each in a gelatin capsule to the chicken. The number of worm bodies discharged within 48 hours after administration of medicine was counted, the chicken was killed after 48 hours and the number of worm bodies remaining in the enteron was counted to determine the anthelmintic percentage, wherefrom the antihelmintic effect was judged.
The same as that in Test Example Al.
The same as that in Test Example Al except that the compound provided for testing was in quantities of 30 mg and 50 mg per Kg of body weight, which were orally administered to the chickens in gelatin capsules.
The same as that in Test Example Al, except that the compounds provided for testing were used in quantities of 15 mg and 30 mg per Kg of body weight, which were orally administered each in a gelatin capsule to the chicken.

[2] = tested on: fowl roundworm (As. galli); assay: Anthelmintic test in chickens artificially infected with fowl roundworm, compound added to feed, E.P.G. and worm count up to 21st day (Test Examples A2, B2, C2, D2); format: in vivo, Ascaridia galli; details: for inhibition in vivo at 20 ppm / inhibition in vivo at 50 ppm / inhibition in vivo at 25 ppm: Ascaridia galli, 504 h, read-out: Anthelmintic effect; for Change of E.P.G. Before administration: baseline
Protocol: Chickens artificially infected with fowl roundworm (As. galli) were employed in groups each of two chickens.
Fecal matter testing was conducted before initiation of the test and on the 7th, 14th and 21st day after initiation of the test. Reduction in worm egg number was examined by calculating E.P.G. (worm eggs per 1 g of fecal matter), and the number of discharged worm bodies and the number of worm bodies remaining in the enteron when the chicken was killed on 21st day were counted to determine the anthelmintic percentage, from which the anthelmintic effect was judged.

[3] = tested on: canine filaria; Dirofilaria immitis; assay: Test of anthelmintic effect against canine filaria in naturally infected dogs, subcutaneous injection, microfilaria in blood and adult filaria at autopsy (Test Examples A10, B10, C10, D10); format: in vivo
Protocol: Eight dogs infected with canine filaria; Diro- filaria immitis (naturally infected dogs) were employed in groups each of two dogs.
The compounds provided for tests were Compound Nos. Al, A3 and A12. 20 mg of each was administered by subcutaneous injection per Kg of body weight to each of the two dogs as a suspension in 1% "Tween 80" solution once per day for three days. As control, 3 ml of the 1% "Tween 80" solution was subcutaneously injected into two dogs once per day for three days.
Before administration and on the 10th day after administration, 20 µl of earlobe blood of each dog was sampled and examined to determine the change in microfilaria (mf) according to the concentrated smear color method, and judgement on the effect on microfilaria (mf) was made. Judgement relating to adult filaria was made on the 10th day after the last administration by killing the dogs and carrying out autopsis.
30 mg of each compound was administered by subcutaneous injection per Kg of body weight to each of the two dogs as a suspension in 1% "Tween 80" solution once per day for three days. As control, 3 ml of the 1% "Tween 80" solution was subcutaneously injected into two dogs once per day for three days.
30 mg of each compound was administered by subcutaneous injection per Kg of body weight to each of two dogs as a suspension in 1% "Tween 80" solution once per day for three days. As control, 3 ml of the 1% "Tween 80" solution was subcutaneously injected to two dogs once per day for three days.
20 mg of each compound was administered by subcutaneous injection per kg of body weight once per day for three days to each of two dogs. These compounds were administered as a suspension in 1% "Tween 80" in the case of Compound No.Dl3 and as solutions dissolved in distilled water for injection in the case of Compounds Nos. D10 and D16, respectively. As control, 3 ml of the 1% "Tween 80" solution was subcutaneously injected into two dogs once per day for three days.

[4] = chickens, 30 mg/Kg orally in gelatin capsule, one value per chicken (No.1-3)
[5] = chickens, 50 mg/Kg orally in gelatin capsule, one value per chicken (No.1-3)
[6] = po, chickens, 20 ppm added to feed, worm count on 21st day, one value per chicken
[7] = po, chickens, 50 ppm added to feed, worm count on 21st day, one value per chicken
[8] = chicken, 30 mg/Kg oral in gelatin capsule, chickens No.1-3
[9] = chicken, 50 mg/Kg oral in gelatin capsule, chickens No.1-3
[10] = feed or water, chicken, 25 ppm in feed
[11] = feed or water, chicken, 50 ppm in feed
[12] = chicken, 15 mg/Kg oral in gelatin capsule, chickens No.1-3
[13] = chickens, 20 ppm added to feed, one value per chicken
[14] = chickens, 50 ppm added to feed, one value per chicken

SMILES: C=CCN(OCC)C(=O)CC(C)C [Compound B11, N-allyl-N-isovaleroyl-O-ethylhydroxylamine]
- inhibition in vivo at 30 mg/kg [1, 4]: 100%
- inhibition in vivo at 50 mg/kg [1, 5]: 100%

SMILES: C=CCN(C=O)OC [Compound B6, N-allyl-N-formyl-O-methylhydroxylamine]
- inhibition in vivo at 30 mg/kg [1, 4]: 100%
- inhibition in vivo at 50 mg/kg [1, 5]: 100%
- inhibition in vivo at 20 ppm [2, 6]: 80 to 90%
- inhibition in vivo at 50 ppm [2, 7]: 100%

SMILES: C=CCN(OCCCC)C(C)=O [Compound B18, N-allyl-N-acetyl-0-butylhydroxylamine]
- inhibition in vivo at 30 mg/kg [1, 4]: 100%
- inhibition in vivo at 50 mg/kg [1, 5]: 100%
- inhibition in vivo at 20 ppm [2, 6]: 100%
- inhibition in vivo at 50 ppm [2, 7]: 100%

SMILES: C=CCN(OCC)C(=O)CC [Compound B9, N-allyl-N-propionyl-O-ethylhydroxylamine]
- inhibition in vivo at 30 mg/kg [1, 4]: 100%
- inhibition in vivo at 50 mg/kg [1, 5]: 100%
- inhibition in vivo at 30 mg/kg ([3]; Dirofilaria immitis, sc, 240 h, dogs, administration of 30 mg/Kg repeated three times, given as about 50% or more, read-out: anthelmintic effect against adult filaria): ≥ 50%
- Number of microfilaria/20 µl on 10th day after the last administration ([3]; dog, 30 mg/Kg x 3, subcutaneous injection, suspension in 1% Tween 80): 0 /20 µl
- Effect on adult filaria: Number of worms killed/ Total parasite ([3]; dog, 30 mg/Kg x 3, subcutaneous injection, 30 mg/kg): 5/7 and 4/8
- anthelmintic effect against microfilaria (mf) ([3]; dogs, administration of 30 mg/Kg repeated three times): marked anthelmintic effect

SMILES: CC=CCNOCC [Compound D7]
- inhibition in vivo at 30 mg/kg [1, 8]: 100%

SMILES: C=CCN(OCCC)C(C)=O [Compound B17, N-allyl-N-acetyl-O-propylhydroxylamine]
- inhibition in vivo at 30 mg/kg [1, 4]: 100%
- inhibition in vivo at 50 mg/kg [1, 5]: 100%
- inhibition in vivo at 20 ppm [2, 6]: 80 to 90%
- inhibition in vivo at 50 ppm [2, 7]: 100%

SMILES: C=CCN(OC)C(=O)CCCCCCC/C=C\CCCCCCCC [Compound B4, N-allyl-N-oleoyl-O-methylhydroxylamine]
- inhibition in vivo at 30 mg/kg [1, 4]: 100%
- inhibition in vivo at 50 mg/kg [1, 5]: 100%
- inhibition in vivo at 20 ppm [2, 6]: 100%
- inhibition in vivo at 50 ppm [2, 7]: 100%

SMILES: C=CCON(CC=C)C(=O)CCCCCCCCCCCCCCCCC [Compound C5]
- inhibition in vivo at 30 mg/kg [1, 8]: 80 to 90%
- inhibition in vivo at 50 mg/kg [1, 9]: 80 to 90%
- inhibition in vivo at 25 ppm [2, 10]: 80 to 90%
- inhibition in vivo at 50 ppm [2, 11]: 100%

SMILES: CC=CCN(OC)C(C)=O [Compound B7, N-crotyl-N-acetyl-O-methylhydroxylamine]
- inhibition in vivo at 30 mg/kg [1, 4]: 100%
- inhibition in vivo at 50 mg/kg [1, 5]: 100%

SMILES: C=CCN(OCC)C(=O)CCCCCCCCCCCCCCCCC [Compound B12, N-allyl-N-stearoyl-O-ethylhydroxylamine]
- inhibition in vivo at 30 mg/kg [1, 4]: 100%
- inhibition in vivo at 50 mg/kg [1, 5]: 100%

SMILES: CC=CCN(OCC)C(C)=O [Compound B16, N-crotyl-N-acetyl-O-ethylhydroxylamine]
- inhibition in vivo at 30 mg/kg [1, 4]: 100%
- inhibition in vivo at 50 mg/kg [1, 5]: 100%
- inhibition in vivo at 20 ppm [2, 6]: 100%
- inhibition in vivo at 50 ppm [2, 7]: 100%

SMILES: C#CCONCC=C [Compound D5]
- inhibition in vivo at 15 mg/kg [1, 12]: 100%
- inhibition in vivo at 30 mg/kg [1, 8]: 100%
- Anthelmintic effect after 48 hours ([1]; chicken, 15 mg/Kg oral in gelatin capsule, chickens No.1-3, 15 mg/kg): +++ (100%)
- Anthelmintic effect after 48 hours [1, 8]: +++ (100%)
- inhibition in vivo at 25 ppm [2, 10]: 80 to 90%
- inhibition in vivo at 50 ppm [2, 11]: 100%

SMILES: C=CCNOCCC [Compound D2, N-allyl-0-propylhydroxylamine]
- inhibition in vivo at 30 mg/kg [1, 8]: 100%
- inhibition in vivo at 25 ppm [2, 10]: 80 to 90%
- inhibition in vivo at 50 ppm [2, 11]: 100%

SMILES: C=CCON(C=O)CC=C [Compound C8]
- inhibition in vivo at 30 mg/kg [1, 8]: 100%
- inhibition in vivo at 50 mg/kg [1, 9]: 100%
- inhibition in vivo at 25 ppm [2, 10]: 100%
- inhibition in vivo at 50 ppm [2, 11]: 100%
- Change of E.P.G. 21st day ([2]; chicken, 25 ppm in feed): 0
- Change of E.P.G. 21st day ([2]; chicken, 50 ppm in feed): 0

SMILES: C=CCN(OC)C(=O)CCC [Compound B3, N-allyl-N-butylyl-O-methylhydroxylamine]
- Anthelmintic effect after 48 hours [1, 4]: +++ (100%)
- Anthelmintic effect after 48 hours [1, 5]: +++ (100%)
- anthelmintic effect ([2]; chickens, 20 ppm added to feed, worm count on 21st day, one value per chicken): ++ (80 - 90%)
- Change of E.P.G. Before administration [2, 13]: 5,600 E.P.G. and 7,900 E.P.G.
- Change of E.P.G. 7th day [2, 13]: 3.100 E.P.G. and 3,000 E.P.G.
- anthelmintic effect ([2]; chickens, 50 ppm added to feed, worm count on 21st day, one value per chicken): +++ (100%)
- Change of E.P.G. Before administration [2, 14]: 10,700 E.P.G. and 14,300 E.P.G.
- Change of E.P.G. 21st day [2, 14]: 0 E.P.G.

SMILES: C=CCN(C=O)OCC [Compound B15, N-allyl-N-formyl-O-ethylhydroxylamine]
- inhibition in vivo at 30 mg/kg [1, 4]: 100%
- inhibition in vivo at 50 mg/kg [1, 5]: 100%
- inhibition in vivo at 20 ppm [2, 6]: 80 to 90%
- inhibition in vivo at 50 ppm [2, 7]: 100%

SMILES: C=CCNOCC=C [Compound D4]
- inhibition in vivo at 15 mg/kg [1, 12]: 80 to 90%
- inhibition in vivo at 30 mg/kg [1, 8]: 100%
- inhibition in vivo at 25 ppm [2, 10]: 80 to 90%
- inhibition in vivo at 50 ppm [2, 11]: 100%

SMILES: C=CCONCC=CC [Compound D8]
- inhibition in vivo at 15 mg/kg [1, 12]: 80 to 90%
- inhibition in vivo at 30 mg/kg [1, 8]: 100%

SMILES: C=CCN(OCC)C(=O)c1ccc(F)cc1 [Compound B14, N-allyl-N-(p-fluorobenzoyl)-O-ethylhydroxylamine]
- inhibition in vivo at 30 mg/kg [1, 4]: 100%
- inhibition in vivo at 50 mg/kg [1, 5]: 100%

SMILES: C#CCNOCC=C [Compound D13, N-propargyl-O-allylhydroxylamine]
- inhibition in vivo at 15 mg/kg [1, 12]: 80 to 90%
- inhibition in vivo at 30 mg/kg [1, 8]: 100%
- inhibition in vivo at 20 mg/kg ([3]; Dirofilaria immitis, sc, 240 h, dog, 20 mg/Kg x 3, subcutaneous injection, read-out: Effect on adult filaria: Percent of worms killed): 63%
- inhibition in vivo at 20 mg/kg ([3]; Dirofilaria immitis, sc, 240 h, dogs, administration of 20 mg/Kg repeated three times, given as about 50% or more, read-out: anthelmintic effect against adult filaria): ≥ 50%
- Number of microfilaria/20µl On 10th day after the administration ([3]; dog, 20 mg/Kg x 3, subcutaneous injection): 0 /20µl
- Effect on adult filaria: Number of worms killed/ Total parasite ([3]; dog, 20 mg/Kg x 3, subcutaneous injection, 20 mg/kg): 21/33 and 20/30
- Number of microfilaria/20µl Before administration ([3]; dog, before 20 mg/Kg x 3 subcutaneous injection (baseline)): 33 /20µl and 26 /20µl
- anthelmintic effect against microfilaria (mf) ([3]; dogs, administration of 20 mg/Kg repeated three times): marked anthelmintic effect

SMILES: C#CCNOCCC [Compound D11]
- inhibition in vivo at 30 mg/kg [1, 8]: 100%

SMILES: C=CCN(OCC)C(=O)CCC [Compound B10, N-allyl-N-butylyl-0-ethylhydroxylamine]
- inhibition in vivo at 30 mg/kg [1, 4]: 100%
- inhibition in vivo at 50 mg/kg [1, 5]: 100%

SMILES: C=CCN(OC)C(=O)CC [Compound B2, N-allyl-N-propionyl-O-methylhydroxylamine]
- inhibition in vivo at 30 mg/kg [1, 4]: 100%
- inhibition in vivo at 50 mg/kg [1, 5]: 100%
- inhibition in vivo at 20 ppm [2, 6]: 80 to 90%
- inhibition in vivo at 50 ppm [2, 7]: 100%

SMILES: C=CCN(OCC)C(=O)c1ccccc1 [Compound B13, N-allyl-N-benzoyl-0-ethylhydroxylamine]
- inhibition in vivo at 30 mg/kg [1, 4]: 100%
- inhibition in vivo at 50 mg/kg [1, 5]: 100%
